Measurements reported in PubChem BioAssay AID248 (DTP/NCI, 2004).
“And” between values parts separate entries of the source, which are not always exact repeats. Identical values can stand only once. Inconclusive results and toxic doses are left out. Rule as the data show it: active = T/C of 150% or more; inactive = T/C below 125%. Square brackets hold non-standard residues; d marks the D form. Peptide text beside a SMILES is read from it. * marks the point of attachment. ξ: configuration not given here. ξY = NC(Cc1ccc(O)cc1)C(=O)O; Cbz = O=C(OCc1ccccc1)*

Tested on: L1210 leukemia ip in BDF1 mice, survival T/C
Assay: NCI In Vivo Anticancer Drug Screen. Data for tumor model L1210 Leukemia (intraperitoneal) in B6D2F1 (BDF1) mice
Conditions: endpoint: mean survival time, higher = longer survival
Method in brief: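 Ratio derived from survival: compound-dosed mice over vehicle-dosed mice, all bearing a transplantable tumor.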

[1] = dose: 100.0 mg/kg/injection, schedule: Q01DX009 (ip), vehicle: saline
[2] = dose: 200.0 mg/kg/injection, schedule: Q01DX009 (ip), vehicle: saline
[3] = dose: 400.0 mg/kg/injection, schedule: Q01DX009 (ip), vehicle: saline
[4] = dose: 200.0 mg/kg/injection, schedule: Q01DX009 (ip), vehicle: Klucel (hydroxypropylcellulose) (HPC)
[5] = dose: 100.0 mg/kg/injection, schedule: Q01DX001 (ip), vehicle: saline with Tween-80
[6] = dose: 200.0 mg/kg/injection, schedule: Q01DX001 (ip), vehicle: saline with Tween-80
[7] = dose: 400.0 mg/kg/injection, schedule: Q01DX001 (ip), vehicle: saline with Tween-80
[8] = dose: 50.0 mg/kg/injection, schedule: Q01DX001 (ip), vehicle: saline
[9] = dose: 100.0 mg/kg/injection, schedule: Q01DX001 (ip), vehicle: saline
[10] = dose: 200.0 mg/kg/injection, schedule: Q01DX001 (ip), vehicle: saline
[11] = dose: 400.0 mg/kg/injection, schedule: Q01DX001 (ip), vehicle: saline
[12] = dose: 100.0 mg/kg/injection, schedule: Q04DX003 (ip), vehicle: saline
[13] = dose: 200.0 mg/kg/injection, schedule: Q04DX003 (ip), vehicle: saline
[14] = dose: 400.0 mg/kg/injection, schedule: Q04DX003 (ip), vehicle: saline
[15] = dose: 100.0 mg/kg/injection, schedule: Q04DX002 (ip), vehicle: Klucel (hydroxypropylcellulose) (HPC)
[16] = dose: 100.0 mg/kg/injection, schedule: Q01DX009 (ip), vehicle: Klucel (hydroxypropylcellulose) (HPC)
[17] = dose: 200.0 mg/kg/injection, schedule: Q04DX002 (ip), vehicle: Klucel (hydroxypropylcellulose) (HPC)
[18] = dose: 400.0 mg/kg/injection, schedule: Q01DX009 (ip), vehicle: Klucel (hydroxypropylcellulose) (HPC)
[19] = dose: 400.0 mg/kg/injection, schedule: Q04DX002 (ip), vehicle: Klucel (hydroxypropylcellulose) (HPC)
[20] = dose: 100.0 mg/kg/injection, schedule: Q04DX003 (ip), vehicle: Klucel (hydroxypropylcellulose) (HPC)
[21] = dose: 200.0 mg/kg/injection, schedule: Q04DX003 (ip), vehicle: Klucel (hydroxypropylcellulose) (HPC)
[22] = dose: 200.0 mg/kg/injection, schedule: Q04DX003 (ip), vehicle: saline with Tween-80
[23] = dose: 400.0 mg/kg/injection, schedule: Q04DX003 (ip), vehicle: saline with Tween-80

Measured: T/C

O=C1CCCc2ccc(Cl)cc21
inactive: [1] 96 % of control | [2] 97 % of control | [3] 94 % of control

c1ccc(N2N=NC3C4CC(C5COCC54)C32)cc1 (stereo not drawn)
inactive: dose: 100.0 mg/kg/injection, schedule: Q01DX001 (ip), vehicle: Klucel (hydroxypropylcellulose) (HPC) 97 % of control | dose: 200.0 mg/kg/injection, schedule: Q01DX001 (ip), vehicle: Klucel (hydroxypropylcellulose) (HPC) 104 % of control | [4] 121 % of control | dose: 400.0 mg/kg/injection, schedule: Q01DX001 (ip), vehicle: Klucel (hydroxypropylcellulose) (HPC) 109 % of control

CCN(c1ccccc1)S(=O)(=O)C(C)S(=O)(=O)N(CC)c1ccccc1
inactive: [5] 97 % of control | [6] 94 % of control | [7] 103 % of control

CC(=O)OCC1OC(n2cnc(N)c2C#N)C(OC(C)=O)C1OC(C)=O (stereo not drawn)
inactive: [8] 98 % of control | [9] 102 % of control | [10] 102 % of control | [11] 102 % of control

O=[N+]([O-])Nc1ccnnc1
inactive: [9] 94 % of control | [10] 96 % of control | [11] 96 % of control

CC(C)CC(N)C(=O)OCc1ccccc1 (stereo not drawn)
inactive: [1] 105 % of control | [12] 97 % of control | [2] 107 % of control | [13] 101 % of control | [3] 98 % of control | [14] 97 % of control

O=S(c1ccccc1)N(OCc1ccccc1)S(=O)c1ccccc1 (stereo not drawn)
inactive: dose: 25.0 mg/kg/injection, schedule: Q04DX002 (ip), vehicle: Klucel (hydroxypropylcellulose) (HPC) 98 % of control | dose: 50.0 mg/kg/injection, schedule: Q04DX002 (ip), vehicle: Klucel (hydroxypropylcellulose) (HPC) 104 % of control | [15] 95 % of control

N#CCC(=O)Nc1ccccc1
inactive: [16] 95 % of control | [15] 109 % of control | [4] 103 % of control | [17] 109 % of control | [18] 114 % of control | [19] 106 % of control

O=C(Nc1ccccc1O)C(O)C(O)C(O)C(O)CO (stereo not drawn)
inactive: [12] 87 % of control | [13] 97 % of control | [14] 91 % of control

CC1(C#N)CC(c2ccccc2)Nc2ccccc2N1 (stereo not drawn)
inactive: [16] 92 % of control | [20] 98 % of control | [4] 100 % of control | [21] 96 % of control | dose: 264.0 mg/kg/injection, schedule: Q04DX003 (ip), vehicle: Klucel (hydroxypropylcellulose) (HPC) 96 % of control and 97 % of control | [18] 97 % of control

O=C(N/N=C/c1ccccc1Cl)c1ccccc1NC(=O)C1CC1
inactive: [16] 97 % of control | [4] 98 % of control | [18] 101 % of control

COC1OCN(C)CC1(C)C (stereo not drawn)
inactive: dose: 75.0 mg/kg/injection, schedule: Q01DX009 (ip), vehicle: saline 87 % of control | [20] 105 % of control | dose: 150.0 mg/kg/injection, schedule: Q01DX009 (ip), vehicle: saline 95 % of control | [21] 102 % of control | dose: 300.0 mg/kg/injection, schedule: Q01DX009 (ip), vehicle: saline 99 % of control

CC12C(=O)C(C(c3ccccc3)=C1c1ccccc1)C1C(=O)OC(=O)C12 (stereo not drawn)
inactive: dose: 75.0 mg/kg/injection, schedule: Q01DX001 (ip), vehicle: saline 95 % of control | dose: 150.0 mg/kg/injection, schedule: Q01DX001 (ip), vehicle: saline 86 % of control | dose: 300.0 mg/kg/injection, schedule: Q01DX001 (ip), vehicle: saline 95 % of control

O=[N+]([O-])c1ccc(NCCO)cc1
inactive: [8] 96 % of control | [9] 96 % of control | [10] 102 % of control | [11] 96 % of control

C1CSC(SCCSC2=NCCS2)=N1
inactive: dose: 62.5 mg/kg/injection, schedule: Q01DX009 (ip), vehicle: carboxymethylcellulose (CMC) 89 % of control | dose: 125.0 mg/kg/injection, schedule: Q01DX009 (ip), vehicle: carboxymethylcellulose (CMC) 100 % of control | dose: 250.0 mg/kg/injection, schedule: Q01DX009 (ip), vehicle: carboxymethylcellulose (CMC) 96 % of control

CC(CC(C)(C)C)C(=O)CCC(C)(C)C (stereo not drawn)
inactive: [5] 103 % of control | [6] 95 % of control | [7] 101 % of control

OC[CH2][Sb]([Cl])([Cl])([c]1ccccc1)[c]1ccccc1
inactive: dose: 5.0 mg/kg/injection, schedule: Q04DX002 (ip), vehicle: saline with Tween-80 97 % of control | dose: 10.0 mg/kg/injection, schedule: Q04DX002 (ip), vehicle: saline with Tween-80 101 % of control | dose: 20.0 mg/kg/injection, schedule: Q04DX002 (ip), vehicle: saline with Tween-80 101 % of control

O=C1c2ccccc2-c2cc(Br)c(N=C(NO)C(F)(F)F)cc21
inactive: dose: 100.0 mg/kg/injection, schedule: Q01DX001 (ip), vehicle: carboxymethylcellulose (CMC) 115 % of control | dose: 200.0 mg/kg/injection, schedule: Q01DX001 (ip), vehicle: carboxymethylcellulose (CMC) 105 % of control | dose: 400.0 mg/kg/injection, schedule: Q01DX001 (ip), vehicle: carboxymethylcellulose (CMC) 108 % of control

CC(C)N(C)/N=N/N(C)C(C)C
inactive: [5] 101 % of control | [6] 103 % of control | [7] 117 % of control

CCCCNC(=O)c1ccccc1-c1ccccc1C(=O)NCCCC
inactive: dose: 100.0 mg/kg/injection, schedule: Q01DX001 (ip), vehicle: other 105 % of control | dose: 200.0 mg/kg/injection, schedule: Q01DX001 (ip), vehicle: other 97 % of control

CC(=O)CC(=O)Nc1cc(Cl)c(NC(=O)CC(C)=O)cc1Cl
inactive: [22] 121 % of control | [23] 88 % of control

CCOC(=O)C(Cc1ccc(O)cc1)NC(=O)CNC(=O)OCc1ccccc1 (stereo not drawn) (Cbz-Gly-[ξY]-OEt)
inactive: dose: 100.0 mg/kg/injection, schedule: Q04DX003 (ip), vehicle: saline with Tween-80 106 % of control | [22] 95 % of control | [23] 96 % of control

CCN(CC)c1ccc(N=Nc2ncn[nH]2)c(O)c1
inactive: [5] 100 % of control | [6] 98 % of control | [7] 88 % of control

O=C(Nc1cccc2ccccc12)Oc1ccc(C2CCCCC2)cc1
inactive: dose: 100.0 mg/kg/injection, schedule: Q01DX009 (ip), vehicle: carboxymethylcellulose (CMC) 97 % of control and 90 % of control | [15] 89 % of control | dose: 100.0 mg/kg/injection, schedule: Q04DX002 (ip), vehicle: carboxymethylcellulose (CMC) 100 % of control and 101 % of control | dose: 100.0 mg/kg/injection, schedule: Q04DX003 (ip), vehicle: carboxymethylcellulose (CMC) 101 % of control | dose: 200.0 mg/kg/injection, schedule: Q01DX009 (ip), vehicle: carboxymethylcellulose (CMC) 87 % of control and 92 % of control | [17] 96 % of control | dose: 200.0 mg/kg/injection, schedule: Q04DX002 (ip), vehicle: carboxymethylcellulose (CMC) 101 % of control and 90 % of control | dose: 200.0 mg/kg/injection, schedule: Q04DX003 (ip), vehicle: carboxymethylcellulose (CMC) 100 % of control | dose: 400.0 mg/kg/injection, schedule: Q01DX009 (ip), vehicle: carboxymethylcellulose (CMC) 97 % of control and 90 % of control | [19] 101 % of control | dose: 400.0 mg/kg/injection, schedule: Q04DX002 (ip), vehicle: carboxymethylcellulose (CMC) 95 % of control and 90 % of control | dose: 400.0 mg/kg/injection, schedule: Q04DX003 (ip), vehicle: carboxymethylcellulose (CMC) 92 % of control

Cc1cc2nc(SCC(=O)O)[nH]c2cc1C
inactive: dose: 100.0 mg/kg/injection, schedule: Q01DX009 (ip), vehicle: gum acacia 96 % of control | dose: 100.0 mg/kg/injection, schedule: Q04DX003 (ip), vehicle: gum acacia 99 % of control | dose: 200.0 mg/kg/injection, schedule: Q01DX009 (ip), vehicle: gum acacia 89 % of control | dose: 200.0 mg/kg/injection, schedule: Q04DX003 (ip), vehicle: gum acacia 103 % of control | dose: 400.0 mg/kg/injection, schedule: Q04DX003 (ip), vehicle: gum acacia 93 % of control
